Test results: patent US20240174690A1, “ANNULATED 2-AMINO-3-CYANO THIOPHENES AND DERIVATIVES FOR THE TREATMENT OF CANCER” (BOEHRINGER INGELHEIM INTERNATIONAL GMBH, priority 2021, published 2024)

Legend:
KRAS (G12D)::SOS1 = KRAS (G12D)::SOS1 (Homo sapiens (Human), UniProt P01116, G12D); assay: KRAS::SOS1 AlphaScreen binding assay, KRAS G12D
Procedure, shortened: (§1)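 KRAS 1-169 (biotinylated avi-tag) with GST-SOS1 564-1049 and 10 µM GDP in PBS/0.1% BSA/0.05% Tween 20: WT and G13D 10 nM each with 10 nM SOS1; G12D 10 nM and G12C 7.5 nM with 5 nM SOS1. After 30 min, glutathione acceptor/streptavidin donor beads were added for 60 min at RT in the dark, then AlphaScreen read; 4-parameter IC50.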

KRAS (G12C)::SOS1 = KRAS (G12C)::SOS1 (Homo sapiens (Human), UniProt P01116, C118S/C51S/C80L/G12C); assay: KRAS::SOS1 AlphaScreen binding assay, KRAS G12C
Procedure, shortened: as §1

[1] = test system: KRAS G12D-dependent Ba/F3 cells; assay: Ba/F3 proliferation assay, KRAS G12D; type: cell-based; settings: Mus musculus, BaF3, 72 h, AlamarBlue
Procedure, shortened: (§2)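 Transforming KRAS G12 mutants replaced IL-3 dependence in retrovirally engineered Ba/F3 cells, with puromycin omitted about ten days before testing. Growth under compound was quantified with an AlamarBlue fluorescent viability stain, in duplicate, by curve fitting.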

[2] = test system: KRAS G12V-dependent Ba/F3 cells; assay: Ba/F3 proliferation assay, KRAS G12V; type: cell-based; settings: Mus musculus, BaF3, 72 h, AlamarBlue;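 also: proliferation IC50 in KRAS G12V-dependent Ba/F3 cells read by AlamarBlue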
Procedure, shortened: as §2

KRAS (G12C)::SOS1, sequence (P01116 other isoform, or with tags, fused parts or gaps G12C/C51S/C80L/C118S): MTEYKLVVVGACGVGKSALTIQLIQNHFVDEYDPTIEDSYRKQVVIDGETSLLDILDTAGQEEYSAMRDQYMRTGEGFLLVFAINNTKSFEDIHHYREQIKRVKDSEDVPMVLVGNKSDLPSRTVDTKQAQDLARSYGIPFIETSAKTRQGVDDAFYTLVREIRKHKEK
KRAS (G12D)::SOS1, sequence (P01116 other isoform, or with tags, fused parts or gaps G12D): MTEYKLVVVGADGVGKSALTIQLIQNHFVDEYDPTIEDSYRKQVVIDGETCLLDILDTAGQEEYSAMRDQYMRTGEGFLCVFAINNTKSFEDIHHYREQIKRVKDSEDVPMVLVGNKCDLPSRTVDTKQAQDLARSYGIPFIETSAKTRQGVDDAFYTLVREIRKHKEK

Row | Compound | IC50 (KRAS (G12D)::SOS1) | IC50 (KRAS (G12C)::SOS1) | IC50 [1] | IC50 [2]
1 | C[C@H](Oc1cc(-c2ccccn2)nc(-c2noc3c2CCC[C@@]32CCCc3sc(N)c(C#N)c32)n1)[C@@H]1CCCN1C [II-85] | 2 nM | 2 nM | 72 nM | 8 nM
2 | C[C@H](Oc1cc(-c2cnn(C)n2)nc(-c2noc3c2CCC[C@@]32CCCc3sc(N)c(C#N)c32)n1)[C@@H]1CCCN1C [II-86] | 5 nM | 2 nM | 59 nM | 14 nM
3 | C[C@H](Oc1cc(-c2cn[nH]c2)nc(-c2noc3c2CCC[C@@]32CCCc3sc(N)c(C#N)c32)n1)[C@@H]1CCCN1C [II-87] | 3 nM | 3 nM | 150 nM | 25 nM
4 | C[C@H](Oc1cc([C@H]2CCOC2)nc(-c2noc3c2CCC[C@@]32CCCc3sc(N)c(C#N)c32)n1)[C@@H]1CCCN1C [II-88] | 1 nM | 2 nM | 15 nM | 6 nM
5 | C[C@H](Oc1cc(-c2ccn(-c3ccccc3)n2)nc(-c2noc3c2CCC[C@@]32CCCc3sc(N)c(C#N)c32)n1)[C@@H]1CCCN1C [II-89] | 12 nM | 3 nM | 199 nM | 18 nM
6 | C[C@H](Oc1cc(N2CCc3cccnc32)nc(-c2noc3c2CCC[C@@]32CCCc3sc(N)c(C#N)c32)n1)[C@@H]1CCCN1C [II-90] | 21 nM | 7 nM | 397 nM | 115 nM
7 | CO[C@@H]1C[C@@H]([C@H](C)Oc2cc(-c3ccn(C)n3)nc(-c3noc4c3CCC[C@@]43CCCc4sc(N)c(C#N)c43)n2)N(C)C1 [II-91] | 4 nM | 2 nM | 65 nM | 8 nM
8 | C[C@H](Oc1cc(-n2cccc3cnnc2-3)nc(-c2noc3c2CCC[C@@]32CCCc3sc(N)c(C#N)c32)n1)[C@@H]1CCCN1C [II-92] | 14 nM | 5 nM | 120 nM | 27 nM
9 | C[C@H](Oc1cc(-n2ccnc2Cl)nc(-c2noc3c2CCC[C@@]32CCCc3sc(N)c(C#N)c32)n1)[C@@H]1CCCN1C [II-93] | 3 nM | 3 nM | 43 nM | 45 nM
10 | C[C@H](Oc1cc([C@@H]2CCOC2)nc(-c2noc3c2CCC[C@@]32CCCc3sc(N)c(C#N)c32)n1)[C@@H]1CCCN1C [II-94] | 1 nM | 1 nM | 11 nM | 3 nM
11 | C[C@H](Oc1cc(C2COCCO2)nc(-c2noc3c2CCC[C@@]32CCCc3sc(N)c(C#N)c32)n1)[C@@H]1CCCN1C (some centres unmarked) [II-95] | 2 nM | 2 nM | 81 nM | 27 nM
12 | C[C@H](Oc1cc(-c2ccn(C)n2)nc(-c2noc3c2CCC[C@@]32CCCc3sc(N)c(C#N)c32)n1)[C@@H]1CCCN1C [II-96] | 2 nM | 2 nM | 23 nM | 5 nM
13 | C[C@H](Oc1cc(-c2cccc(CO)c2)nc(-c2noc3c2CCC[C@@]32CCCc3sc(N)c(C#N)c32)n1)[C@@H]1CCCN1C [II-97] | 13 nM | 3 nM | 198 nM | 26 nM
14 | C[C@H](Oc1cc(-c2ccn(C3CC3)n2)nc(-c2noc3c2CCC[C@@]32CCCc3sc(N)c(C#N)c32)n1)[C@@H]1CCCN1C [II-98] | 4 nM | 2 nM | 69 nM | 14 nM
15 | C[C@H](Oc1cc(N2CCC(C#N)C2)nc(-c2noc3c2CCC[C@@]32CCCc3sc(N)c(C#N)c32)n1)[C@@H]1CCCN1C (some centres unmarked) [II-99] | 4 nM | 3 nM | 83 nM | 35 nM
16 | C[C@H](Oc1cc(-c2cn(C3COC3)nn2)nc(-c2noc3c2CCC[C@@]32CCCc3sc(N)c(C#N)c32)n1)[C@@H]1CCCN1C [II-100] | 6 nM | 3 nM | 56 nM | 52 nM
17 | C[C@H](Oc1cc(-c2ccc(N)nc2)nc(-c2noc3c2CCC[C@@]32CCCc3sc(N)c(C#N)c32)n1)[C@@H]1CCCN1C [II-101] | 4 nM | 2 nM | 155 nM | 28 nM
18 | C[C@H](Oc1cc(-n2ccc(C#N)n2)nc(-c2noc3c2CCC[C@@]32CCCc3sc(N)c(C#N)c32)n1)[C@@H]1CCCN1C [II-102] | 3 nM | 2 nM | 14 nM | 4 nM
19 | C[C@H](Oc1cc(-c2ccn3ncnc3c2)nc(-c2noc3c2CCC[C@@]32CCCc3sc(N)c(C#N)c32)n1)[C@@H]1CCCN1C [II-104] | 5 nM | 2 nM | 78 nM | 12 nM

Row | Compound | IC50 (KRAS (G12D)::SOS1) | IC50 (KRAS (G12C)::SOS1) | IC50 [1] | IC50 [2]
20 | C[C@H](Oc1cc(-n2cncc3ccnc2-3)nc(-c2noc3c2CCC[C@@]32CCCc3sc(N)c(C#N)c32)n1)[C@@H]1CCCN1C [II-105] | 2 nM | 2 nM | 37 nM | 6 nM
21 | Cc1cn(-c2cc(O[C@@H](C)[C@@H]3CCCN3C)nc(-c3noc4c3CCC[C@@]43CCCc4sc(N)c(C#N)c43)n2)nn1 [II-106] | 9 nM | 4 nM | 107 nM | 23 nM
22 | CO[C@@H]1C[C@@H]([C@H](C)Oc2cc(-c3ccn(C4COC4)n3)nc(-c3noc4c3CCC[C@@]43CCCc4sc(N)c(C#N)c43)n2)N(C)C1 [II-107] | 4 nM | 2 nM | 19 nM | 8 nM
23 | C[C@H](Oc1cc(-c2ccn(C3COC3)n2)nc(-c2noc3c2CCC[C@@]32CCCc3sc(N)c(C#N)c32)n1)[C@@H]1CCCN1C [II-109] | 3 nM | 2 nM | 80 nM | 18 nM
24 | C[C@H](Oc1cc(-n2ccc(Br)n2)nc(-c2noc3c2CCC[C@@]32CCCc3sc(N)c(C#N)c32)n1)[C@@H]1CCCN1C [II-110] | 3 nM | 2 nM | 51 nM | 13 nM
25 | C[C@H](Oc1cc(-c2cnsc2)nc(-c2noc3c2CCC[C@@]32CCCc3sc(N)c(C#N)c32)n1)[C@@H]1CCCN1C [II-111] | 3 nM | 2 nM | 46 nM | 4 nM
26 | C[C@H](O)Cn1ccc(-c2cc(O[C@@H](C)[C@@H]3CCCN3C)nc(-c3noc4c3CCC[C@@]43CCCc4sc(N)c(C#N)c43)n2)n1 [II-112] | 1 nM | 1 nM | 42 nM | 6 nM
27 | C[C@H](Oc1cc(-n2cc(Cn3ccnc3)nn2)nc(-c2noc3c2CCC[C@@]32CCCc3sc(N)c(C#N)c32)n1)[C@@H]1CCCN1C [II-113] | 2 nM | 2 nM | 106 nM | 33 nM
28 | COC(=O)c1ccc(-c2cc(O[C@@H](C)[C@@H]3CCCN3C)nc(-c3noc4c3CCC[C@@]43CCCc4sc(N)c(C#N)c43)n2)o1 [II-114] | 3 nM | 2 nM | 99 nM | 7 nM
29 | C[C@H](Oc1cc(-c2cn(C3CCOCC3)nn2)nc(-c2noc3c2CCC[C@@]32CCCc3sc(N)c(C#N)c32)n1)[C@@H]1CCCN1C [II-115] | 13 nM | 8 nM | 131 nM | 34 nM
30 | C[C@H](Oc1cc(-n2ccncc2=O)nc(-c2noc3c2CCC[C@@]32CCCc3sc(N)c(C#N)c32)n1)[C@@H]1CCCN1C [II-116] | 2 nM | 2 nM | 30 nM | 8 nM
31 | C[C@H](Oc1cc(-c2ccn(C[C@@H](C)O)n2)nc(-c2noc3c2CCC[C@@]32CCCc3sc(N)c(C#N)c32)n1)[C@@H]1CCCN1C [II-117] | 2 nM | 1 nM | 36 nM | 6 nM
32 | C[C@H](Oc1cc(-n2cc(C3CC3)nn2)nc(-c2noc3c2CCC[C@@]32CCCc3sc(N)c(C#N)c32)n1)[C@@H]1CCCN1C [II-118] | 4 nM | 2 nM | 133 nM | 26 nM
33 | C[C@H](Oc1cc(-n2ccc(-c3ccccn3)n2)nc(-c2noc3c2CCC[C@@]32CCCc3sc(N)c(C#N)c32)n1)[C@@H]1CCCN1C [II-119] | 2 nM | 2 nM | 51 nM | 6 nM
34 | C[C@H](Oc1cc(-n2ccnc2)nc(-c2noc3c2CCC[C@@]32CCCc3sc(N)c(C#N)c32)n1)[C@@H]1C[C@@H](F)CN1C [II-120] | 9 nM | 2 nM | 149 nM | 13 nM
35 | COCc1cn(-c2cc(O[C@@H](C)[C@@H]3CCCN3C)nc(-c3noc4c3CCC[C@@]43CCCc4sc(N)c(C#N)c43)n2)nn1 [II-121] | 3 nM | 2 nM | 77 nM | 11 nM
36 | CNC(=O)c1cn(-c2cc(O[C@@H](C)[C@@H]3CCCN3C)nc(-c3noc4c3CCC[C@@]43CCCc4sc(N)c(C#N)c43)n2)nn1 [II-122] | 4 nM | 2 nM | 132 nM | 10 nM
37 | C[C@H](Oc1cc(-n2cc(-c3cccnc3)nn2)nc(-c2noc3c2CCC[C@@]32CCCc3sc(N)c(C#N)c32)n1)[C@@H]1CCCN1C [II-123] | 8 nM | 2 nM | 93 nM | 24 nM
38 | C[C@H](Oc1cc(-n2cc(Cn3cncn3)nn2)nc(-c2noc3c2CCC[C@@]32CCCc3sc(N)c(C#N)c32)n1)[C@@H]1CCCN1C [II-124] | 2 nM | 2 nM | 58 nM | 12 nM
